Common to all, as to assay type: biochemical
Experiment [1] addresses T1, TYK2 (Homo sapiens, UniProt P29597).
T1 construct: made in house; host or cells: SF9 insect cells (baculovirus)
T1 sequence (P29597 873-1187): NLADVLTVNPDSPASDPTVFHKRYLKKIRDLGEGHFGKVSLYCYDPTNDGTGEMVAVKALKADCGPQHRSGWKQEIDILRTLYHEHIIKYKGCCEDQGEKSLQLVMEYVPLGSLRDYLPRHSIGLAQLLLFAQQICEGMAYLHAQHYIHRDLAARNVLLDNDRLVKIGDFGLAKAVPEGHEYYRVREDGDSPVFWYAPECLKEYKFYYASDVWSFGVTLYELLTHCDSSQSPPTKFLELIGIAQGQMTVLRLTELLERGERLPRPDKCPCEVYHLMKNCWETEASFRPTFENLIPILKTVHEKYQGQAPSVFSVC
Briefly: TYK2 inhibition (Table 4).

The target of experiment [2] is T2, JAK3 (Homo sapiens, UniProt P52333).
T2 construct: made in house; host or cells: SF9 insect cells (baculovirus)
Briefly: JAK3 inhibition (Table 4). Conditions: read-out: JAK3 Ki.

The target of experiment [3] is T3, JAK2 (Homo sapiens, UniProt O60674).
T3 construct: made in house; host or cells: SF9 insect cells (baculovirus)
Description: JAK2 inhibition (Table 4). Conditions: read-out: JAK2 Ki.

The target in experiment [4] is T4, JAK1 (Homo sapiens, UniProt P23458).
T4 construct: made in house; host or cells: SF9 insect cells (baculovirus)
Description: JAK1 inhibition (Table 4). Conditions: read-out: JAK1 Ki.

T2 sequence (P52333 783-1124): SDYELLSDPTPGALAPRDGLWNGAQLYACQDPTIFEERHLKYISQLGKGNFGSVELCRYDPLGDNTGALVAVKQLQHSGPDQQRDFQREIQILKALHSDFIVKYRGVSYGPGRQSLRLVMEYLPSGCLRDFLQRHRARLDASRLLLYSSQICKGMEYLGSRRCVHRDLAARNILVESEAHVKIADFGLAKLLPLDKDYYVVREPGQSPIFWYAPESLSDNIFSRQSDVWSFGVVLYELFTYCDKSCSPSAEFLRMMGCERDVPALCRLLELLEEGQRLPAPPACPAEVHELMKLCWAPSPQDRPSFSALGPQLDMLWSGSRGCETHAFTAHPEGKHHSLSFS
T3 sequence (O60674 812-1132): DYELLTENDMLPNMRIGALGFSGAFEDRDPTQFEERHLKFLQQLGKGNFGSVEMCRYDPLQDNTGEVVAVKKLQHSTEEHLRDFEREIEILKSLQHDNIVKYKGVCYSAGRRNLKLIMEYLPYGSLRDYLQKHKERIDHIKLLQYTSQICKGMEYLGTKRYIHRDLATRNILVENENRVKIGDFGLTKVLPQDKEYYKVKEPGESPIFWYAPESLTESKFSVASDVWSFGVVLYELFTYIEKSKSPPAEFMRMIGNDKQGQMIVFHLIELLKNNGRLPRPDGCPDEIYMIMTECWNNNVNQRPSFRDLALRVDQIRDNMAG
T4 sequence (P23458 852-1154): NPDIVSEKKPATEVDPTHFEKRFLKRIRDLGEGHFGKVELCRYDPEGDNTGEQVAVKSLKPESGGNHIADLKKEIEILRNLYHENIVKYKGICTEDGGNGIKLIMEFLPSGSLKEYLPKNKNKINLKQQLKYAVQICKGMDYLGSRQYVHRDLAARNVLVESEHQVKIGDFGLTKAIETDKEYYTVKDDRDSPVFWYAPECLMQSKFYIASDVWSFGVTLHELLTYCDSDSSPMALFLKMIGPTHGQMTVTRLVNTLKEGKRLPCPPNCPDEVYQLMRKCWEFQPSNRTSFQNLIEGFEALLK

As a reminder, the Ki is a measure of affinity in units of concentration, obtained from inhibition or displacement. For `N#CCCN1CCC(n2c(CNC(=O)C3CC3)nc3cnc4[nH]ccc4c32)CC1` [Example 500, Cyclopropanecarboxylic acid {1-[1-(2-cyano-ethyl)-piperidin-4-yl]-1,6-dihydro-1,3,5,6-tetraaza-as-indacen-2-ylmethyl}-amide], the Ki in experiment [1] came to 394 nM; in experiment [2] it was 41 nM; in experiment [3], 58.7 nM; in experiment [4], 28.7 nM.
In the same order, the values of `Cc1nc2cnc3[nH]ccc3c2n1[C@H]1CC[C@H](CO)CC1` [Example 633, Trans[4-(2-methyl-6H-1,2,3,5,6-tetraaza-as-indacen-1-yl)-cyclohexyl]-methanol] are 6.08 nM, 12.1 nM, 3.31 nM and 1.19 nM.
On to `C[C@@H](O)c1nc2cnc3[nH]ccc3c2n1[C@H]1COCCC1(F)F` [Example 1011, (R)-1-[1-((S)-4,4-Difluoro-tetrahydro-pyran-3-yl)-1,6-dihydro-1,3,5,6-tetraaza-as-indacen-2-yl]-ethanol], for which the Ki in experiment [1] stood at 81.7 nM; in experiment [2] it was 79.3 nM; in experiment [3], 133 nM; in experiment [4], 18 nM.
In the case of `O=C(Cc1ccccc1)N1CCC[C@@H](n2cnc3cnc4[nH]ccc4c32)C1` [Example 222, 2-Phenyl-1-[(R)-3-(6H-1,3,5,6-tetraaza-as-indacen-1-yl)-piperidin-1-yl]-ethanone], the Ki was determined as 555 nM in experiment [1], 48.1 nM in experiment [2], 29.1 nM in experiment [3] and 13.8 nM in experiment [4].
On the same counts, the results for `N#CCCN1CCC(n2c(COCc3ccc(F)c(F)c3)nc3cnc4[nH]ccc4c32)CC1` [Example 835, 3-{4-[2-(3,4-Difluoro-benzyloxymethyl)-6H-1,3,5,6-tetraaza-as-indacen-1-yl]-piperidin-1-yl}-propionitrile] are 320 nM, 29.6 nM, 59.1 nM and 37.9 nM.
Turning to `CS(=O)(=O)[C@H]1CC[C@H](n2c(CO)nc3cnc4[nH]ccc4c32)CC1` [Example 651, Trans[1-(4-Methanesulfonyl-cyclohexyl)-1,6-dihydro-1,2,3,5,6-tetraaza-as-indacen-2-yl]-methanol], the Ki in experiment [1] worked out at 34.8 nM; in experiment [2], 430 nM; in experiment [3], 42.5 nM; in experiment [4], 9.87 nM.
On the same counts, the results for `CN(C)C(=O)CN1CCC[C@@H](n2cnc3cnc4[nH]ccc4c32)C1` [Example 60, N,N-Dimethyl-2-[(R)-3-(6H-1,3,5,6-tetraaza-as-indacen-1-yl)-piperidin-1-yl]acetamide] are 715 nM, 625 nM, 201 nM and 135 nM.
On the same counts, the results for `O=C(Cc1nc2cnc3[nH]ccc3c2n1C1CCCOC1)N1CCS(=O)(=O)CC1` (racemic) [Example 979, 1-(1,1-Dioxo-1$1%6&-thiomorpholin-4-yl)-2-[1-(tetrahydro-pyran-3-yl)-1,6-dihydro-1,3,5,6-tetraaza-as-indacen-2-yl]-ethanone] are 113 nM, 127 nM, 238 nM and 15.5 nM.
As to `CC(CC#N)N1CCC(n2c(CCn3cncn3)nc3cnc4[nH]ccc4c32)CC1` (racemic) [Example 394, 3-{4-[2-(2-[1,2,4]Triazol-1-yl-ethyl)-6H-1,3,5,6-tetraaza-as-indacen-1-yl]-piperidin-1-yl}-butyronitrile], the Ki in experiment [1] was 170 nM; in experiment [2], 152 nM; in experiment [3], 37.9 nM; in experiment [4] it was 18.3 nM.
On the same counts, the results for `Cc1nc2cnc3[nH]ccc3c2n1[C@@H]1C[C@@H]2CC[C@H]1O2` (relative stereo) [Example 684, Endo-2-Methyl-1-(7-oxa-bicyclo[2.2.1]hept-2-yl)-1,6-dihydro-1,2,3,5,6-tetraaza-as-indacene] are 37.8 nM, 11.5 nM, 21.6 nM and 7.57 nM.
On the same counts, the results for `CC(O)c1nc2cnc3[nH]ccc3c2n1C1CC2CCC1O2` (stereo not drawn) [Example 906, 1-[1-(7-Oxa-bicyclo[2.2.1]hept-2-yl)-1,6-dihydro-1,3,5,6-tetraaza-as-indacen-2-yl]-ethanol] are 119 nM, 273 nM, 271 nM and 51.8 nM.
Turning to `O=C(NC1CCC(n2cnc3cnc4[nH]ccc4c32)CC1)c1cccnc1` (stereo not drawn) [Example 884, N-[4-(6H-1,3,5,6-Tetraaza-as-indacen-1-yl)-cyclohexyl]-nicotinamide], the Ki in experiment [1] came out at 44 nM; in experiment [2] it was 86.3 nM; in experiment [3], 6.39 nM; in experiment [4], 5.17 nM.
Take `CCN1CC[C@@H](n2c(CCNS(C)(=O)=O)nc3cnc4[nH]ccc4c32)[C@@H](F)C1` [Example 808, N-{2-[1-((3S,4R)-1-Ethyl-3-fluoro-piperidin-4-yl)-1,6-dihydro-1,3,5,6-tetraaza-as-indacen-2-yl]-ethyl}-methanesulfonamide]: the Ki in experiment [1] came to 303 nM; in experiment [2], 128 nM; in experiment [3] it was 34.1 nM; in experiment [4], 4.77 nM.
On the same counts, the results for `OC(CN1CCC(n2cnc3cnc4[nH]ccc4c32)CC1)(C(F)(F)F)C(F)(F)F` [Example 174, 1,1,1,3,3,3-Hexafluoro-2-[4-(6H-1,2,3,5,6-tetraaza-as-indacen-1-yl)-piperidin-1-ylmethyl]-propan-2-ol] are 7.53 nM, 87.4 nM, 2.66 nM and 1.58 nM.
Regarding `Cc1nc2cnc3[nH]ccc3c2n1[C@H]1CC[C@@H](NC(=O)CC(F)(F)F)C1` [Example 731, 3,3,3-Trifluoro-N-[(1R,3S)-3-(2-methyl-6H-1,3,5,6-tetraaza-as-indacen-1-yl)-cyclopentyl]-propionamide], the Ki stood at 12.4 nM in experiment [1], 9.13 nM in experiment [2], 5.54 nM in experiment [3] and 0.58 nM in experiment [4].
`O=C(c1cccnc1)N1CCC(n2cnc3cnc4[nH]ccc4c32)CC1` [Example 34, Pyridin-3-yl-[4-(6H-1,3,5,6-tetraaza-as-indacen-1-yl)-piperidin-1-yl]methanone]: the Ki in experiment [1] was determined as 423 nM; in experiment [2], 1070 nM; in experiment [3], 63.1 nM; in experiment [4], 31.5 nM.
In the same order, the values of `CC(O)c1nc2cnc3[nH]ccc3c2n1C1CCCN(C(=O)C2CCOC2)C1` (stereo not drawn) [Example 786, {3-[2-(1-Hydroxy-ethyl)-6H-1,3,5,6-tetraaza-as-indacen-1-yl]-piperidin-1-yl}-(tetrahydro-furan-3-yl)-methanone] are 599 nM, 1120 nM, 596 nM and 52.5 nM.
As to `CCS(=O)(=O)NCc1nc2cnc3[nH]ccc3c2n1C1CCN(CCC#N)CC1` [Example 504], the Ki in experiment [1] amounted to 116 nM; in experiment [2], 53.6 nM; in experiment [3], 25.4 nM; in experiment [4], 7.75 nM.
Turning to `CC(C)NC(=O)Cc1nc2cnc3[nH]ccc3c2n1C1CCN(Cc2ccccc2)CC1` [Example 103, 2-[1-(1-Benzyl-piperidin-4-yl)-1,6-dihydro-1,3,5,6-tetraaza-as-indacen-2-yl]-N-isopropylacetamide], the Ki in experiment [1] is 673 nM; in experiment [2], 11.6 nM; in experiment [3] it was 17.3 nM; in experiment [4] it was 5.09 nM.
In the case of `Cc1nc2cnc3[nH]ccc3c2n1C1CCC(N2CCC(F)(F)CC2)CC1` (stereo not drawn) [Example 767, 1-[4-(4,4-Difluoro-piperidin-1-yl)-cyclohexyl]-2-methyl-1,6-dihydro-1,3,5,6-tetraaza-as-indacene], the Ki in experiment [1] is 36.9 nM; in experiment [2], 155 nM; in experiment [3], 10.7 nM; in experiment [4], 2.81 nM.
On to `O=C(CC(F)(F)F)NC1CCC(n2cnc3cnc4[nH]ccc4c32)C1` (racemic) [Example 729, 3,3,3-Trifluoro-N-[3-(6H-1,3,5,6-tetraaza-as-indacen-1-yl)-cyclopentyl]-propionamide], for which the Ki was 48.9 nM in experiment [1], 13.5 nM in experiment [2], 9.79 nM in experiment [3] and 2 nM in experiment [4].
On the same counts, the results for `CN(C)C(=O)CCc1nc2cnc3[nH]ccc3c2n1C1CCCCC1` [Example 803, 3-(1-Cyclohexyl-1,6-dihydro-1,3,5,6-tetraaza-as-indacen-2-yl)-N,N-dimethyl-propionamide] are 76.8 nM, 25.7 nM, 44 nM and 16.1 nM.
As for `N#CCCN1CCC(n2c(CCn3cccn3)nc3cnc4[nH]ccc4c32)CC1` [Example 414, 3-{4-[2-(2-Pyrazol-1-yl-ethyl)-6H-1,3,5,6-tetraaza-as-indacen-1-yl]-piperidin-1-yl}-propionitrile], the inhibition constant Ki came to 137 nM in experiment [1], 155 nM in experiment [2], 55.7 nM in experiment [3] and 17.6 nM in experiment [4].
With `CC(C)c1nc2cnc3[nH]ccc3c2n1C1CCN(CCC#N)CC1` [Example 281, 3-[4-(2-Isopropyl-6H-1,3,5,6-tetraaza-as-indacen-1-yl)-piperidin-1-yl]-propionitrile], the Ki came to 171 nM in experiment [1], 16.3 nM in experiment [2], 25.1 nM in experiment [3] and 7.49 nM in experiment [4].

Source of the values: patent US8461328B2, “Tricyclic heterocyclic compounds, compositions and methods of use thereof” (Genentech, Inc., priority 2010, dated 2013).
